Assay results: patent publication US10954287B2, “Ras binding peptides and methods of use” (Ra Pharmaceuticals, Inc., priority 2016, dated 2021)
Where two headings read alike, the source gives them in different places.

Tests used:
[1] = Compound stability in mouse plasma; type: in vitro ADME; conditions: serum (method text and assay name say plasma), 37° C., pH 7.4
Method: Compounds were assayed for stability in mouse and rat plasma under the following conditions. Plasma was adjusted to pH 7.4. DMSO stocks at 10 mM concentration were prepared for the test compounds. Aliquots of the DMSO solutions were dosed into 1 mL of plasma, which had been pre-warmed to 37° C., at a final test compound concentration of 10 μM. The vials were kept in a benchtop Thermomixer® (Eppendorf, Hauppauge, N.Y.) for the duration of the experiment. Aliquots (100 μL) were taken at each timepoint and added to a 96-well plate that had been pre-filled with 300 μL of an acetonitrile solution containing mixture of the internal standards (metoprolol, propranalol and warfarin each at 500 ng/mL). Samples were stored at 4° C. until the end of the experiment. After the final timepoint was sampled, the plate was mixed and then centrifuged at 3,000 rpm for 10 minutes. Aliquots of the supernatant were removed and analyzed by LC-HRAMS.

[2] = test system: GMPPNP-loaded H-Ras or GTP-loaded K-Ras; test: Fluorescence polarization competition assay with TAMRA-labeled probe R4007; type: binding, human; conditions: 120 nM Ras
Procedure, shortened: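 120 nM GMPPNP-loaded H-Ras or GTP-loaded K-Ras was preincubated with 30 nM TAMRA-labeled R4007 probe for 20 min at room temperature in Tris pH 7.5 buffer with MgCl2, EDTA and Triton X-100. Serially diluted competitor was then added for 60 min. Polarization was read at 535/595 nm, with Ki from a one-site Ki fit and IC50 from probe displacement.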

[3] = target: T1, H-Ras (Homo sapiens, UniProt P01112, G12V); test: Differential scanning fluorimetry (DSF); type: binding; conditions: Ras 5 μM, peptide 20 μM, FIG. 8A
T1 construct: made in house; host or cells: E. coli BL21 (DE3)
Method: Differential scanning fluorimetry (DSF) is based on denaturation of the protein in the absence or presence of a ligand, exposing hydrophobic residues that can be detected with high sensitivity with a fluorescent dye. […] DSF was performed on a CFX 96-well plate, real-time PCR instrument (Bio-Rad, Hercules, Calif.) according to Nettleship et al. [Nettleship, J. E., Brown, J., Groves, M. R., and Geerlof, A. (2008) Methods for protein characterization by mass spectrometry, thermal shift (ThermoFluor) assay, and multiangle or static light scattering. Methods Mol. Biol. 426: 299-318), the contents of which are incorporated herein by reference in their entirety]. SYPRO orange was purchased from Life Technologies (Carlsbad, Calif.). After incubation of Ras (5 μM) and peptide (20 μM) at room temperature for 15 minutes in 20 mM Tris-HCl (pH 8), 150 mM NaCl, 1 mM MgCl2, 2 mM DTT, and 0.2% dimethyl sulfoxide, SYPRO orange was added to the final concentration of 10× (original stock at 5000×). The mixture was subsequently heated in Bio-Rad CFX 96 PCR instrument from 25 to 95° C. in increments of 0.3° C./10 s. Fluorescence intensity was measured using excitation and emission wavelengths of 483 and 610 nm, respectively. Changes in protein thermal stability (ATm) upon peptide binding were analyzed by using Bio-Rad CFX Manager Software provided by the manufacturer.

`CCC[C@H](NC(C)=O)C(=O)N[C@H]1CSCc2cccc(c2)CSC[C@@H](C(N)=O)NC(=O)CN(C)C(=O)[C@H](Cc2ccc(F)cc2)N(C)C(=O)[C@H](Cc2ccc(O)cc2)NC(=O)[C@H](Cc2c[nH]c3ncccc23)NC(=O)[C@H](c2ccccc2)NC(=O)[C@H](C)N(C)C(=O)[C@H](Cc2cnc[nH]2)NC(=O)[C@H](CCCCN)NC(=O)[C@H](C(C)(C)C)NC(=O)[C@H](Cc2ccc(O)cc2)NC1=O` (relative stereo) [Compound R4000, ACE-NVA-CYS*-TYR-TBG-LYS-HIS-NMA-PHG-7AW-TYR-MFF-SAR-CYS*-NH2] gave a half-life at 10 μM [1] of 5 h, an IC50 ([2]; 30 nM R4007, FIG. 7B, read-out: half-maximal inhibitory concentration (IC50) for displacement of R4007) of 20 nM and an IC50 ([2]; 30 nM probe R4007, 60 minutes at room temperature, read-out: Probe displacement (nM IC50)) of 28.6 nM. The “Δ Tm” value [3] was “+11 °C”.
